The source of these data is patent publication US20210346319A1, “Pharmaceutical Compositions of R-(+)-Propranolol in Enantiomeric Excess and Therapeutic Uses Related Thereto” (Emory University, priority 2018, published 2021).

One assay deals with bEnd.3 tumors. Briefly: RNAseq analysis of R-propranolol vs vehicle treated tumors. The class given is in vivo, mice. From the text: In order to gain an understanding of the mechanism of action of R-propranolol in vivo, vehicle and R-propranolol treated tumors were subjected to RNA seq analysis. […] The APOA1 gene expresses a protein called apolipoprotein A-I (apoA-I). ApoA-I is a component of high-density lipoprotein (HDL) which transports cholesterol and phospholipids through the bloodstream for excretion by the liver beneficial for cardiovascular health.

For another assay, the system named is VEGF. Briefly: VEGF levels in infants receiving propranolol for hemangioma of infancy. In kind it is in vivo, human. The conditions noted are these: saliva of infants with hemangiomas, hydrochloride. The source says: (§1) Genetic studies of hemangiomas have not elucidated a common genetic cause, as opposed to other vascular lesions, such as vascular malformations and angiosarcomas, in which genetic mutations have been found. Cytokines have been found in hemangiomas of infancy, including vascular endothelial growth factor (VEGF) and Angiopoietin-2 (Ang-2). The role of these factors in hemangiomas are not fully understood, especially given that Ang-2 can serve as a growth factor or mediate endothelial apoptosis depending on the context. A series of infants were studied who received propranolol for treatment of hemangioma of infancy.

The next assay relates to Angiopoietin-2 (Ang-2). Briefly: Ang-2 levels in infants receiving propranolol for hemangioma of infancy. The class given is in vivo, human. The conditions noted are these: saliva of infants with hemangiomas.
Source text: as §1

Assay [1] has as its system Angptl4. Kind of assay: Downregulation of VEGF/Angptl4 by propranolol and its isomers (summary statements). The class given is cell-based.
A further assay has as its system hemangioma of infancy. The conditions noted are these: infant who received propranolol for cardiac disease; cited from earlier work.
Assay [2] concerns Angptl4. Briefly: Gene array of treated hemangioma stem cells (HemSC). In kind it is cell-based, human. The conditions noted are these: for Angptl4 gene regulation on gene array: HemSC cells vs vehicle control; for effectiveness in downregulating Angptl4 compared with S-propranolol: hemangioma stem cells.
For assay [3], the system named is Angptl4. Briefly: Western blot analysis of Angptl4 in HemSC cells. (Immunoblotting shows a protein as a band on a membrane.)
Another assay relates to bEnd.3 hemangioma cells. Briefly: Seahorse analysis of respiration in bEnd.3 cells. The conditions noted are these: for basal respiration / spare respiratory capacity: FIG. 5B; for maximal respiration: compared to vehicle control.
Assay [4] concerns Angptl4. The note with it: bEnd.3 cells, FIG. 1.
For the next assay, the system named is bEnd.3 hemangioma. Briefly: bEnd.3 hemangioma xenograft growth in nude mice. In kind it is in vivo. The note with it: p=0.014. How it is done: The xenograft model was developed and approved by the Institutional Animal Care and Use Committee of Emory University. bEnd.3 cell suspension in growth medium was inoculated in the right flank of athymic Nu/Nu nude male mice purchased from the Charles River Laboratories at 2.5×10^5 cells/mouse (n=5 per group). Control or R-propranolol was administered intraperitoneally five times a week at 3.5 mg/kg/day. R-propranolol treatment was initiated on the second day after the tumor cell injection.
To elucidate the signaling cascade independent of beta blockade in hemangioma formation, tie-2-deficient mouse hemangioma cell line, bEnd.3 was xenografted and treated with or without R-propranolol, isomer deficient in beta blockade activity.

Setting [5] is: RNAseq treated vs vehicle tumors.

“Also recorded” adds a separate entry of the source.

Consider `CC(C)NCC(O)COc1cccc2ccccc12.Cl` (racemic) [propranolol, (±)-1-[(1-methylethyl)amino]-3-(1-naphthalenyloxy)-2-propanol hydrochloride], for which the “N4RA1 (Nur77) expression” value with bEnd.3 tumors (setting [5]) is “upregulated”. In addition, the values for the VEGF levels entry with VEGF and in the assay with VEGF (listed as Propranolol) were “reduced” and “downregulates”, respectively. Moreover, the Ang-2 levels result in the assay on Angiopoietin-2 (Ang-2) is given as “not”. Besides, the VEGF/Angplt4 downregulation result in the assay on Angptl4 [1] is “coordinately downregulates”. The “hemangioma of infancy, clinical course” value in the assay with hemangioma of infancy is on record as “regression”.
Consider `CC(C)NCC(O)COc1cccc2ccccc12` (stereo not drawn) [S-propranolol, reference compound], for which, in the assay with Angptl4 [2], the “Angptl4 gene regulation on gene array” value is listed as “downregulated; also recorded: most regulated gene”. Moreover, the “Angptl4 expression, Western blot” value with Angptl4 [3] (FIG. 1) is given as “not”. Also, in the assay on Angptl4 [3] (FIG. 1, listed as S isomer), the “Angptl4 expression, Western blot” value is reported as “had no effect”. Besides, in the assay with bEnd.3 hemangioma cells, the basal respiration entry is on record as “increased” and the spare respiratory capacity entry is “increased”. Further, in the assay on bEnd.3 hemangioma cells (FIG. 5A), the maximal respiration entry was “substantially increased”. In the assay on Angptl4 [4], the Angptl4 protein expression entry is reported as “slightly elevated”.
For the compound `CN(C)c1ccc(C(=C2C=CC(=[N+](C)C)C=C2)c2ccc(N(C)C)cc2)cc1` [gentian violet], in the assay with Angptl4 [2], the “Angptl4 gene regulation on gene array” value is reported as “downregulated; also recorded: most regulated gene”. Besides, the “Angptl4 expression, Western blot” value with Angptl4 [3] (FIG. 1) is “suppressed Angptl4”; with Angptl4 [3] (FIG. 1, listed as Gentian violet), “downregulated Angptl4”. Also, in the assay on Angptl4 [4], the Angptl4 protein expression result was “much reduced”.
With `CC(C)NC[C@@H](O)COc1cccc2ccccc12` [R-propranolol, (R)-(+)-1-(isopropylamino)-3-(naphthalen-1-yloxy)propan-2-ol], in the assay on Angptl4 [2], the “Angptl4 gene regulation on gene array” value is “downregulated; also recorded: most regulated gene” and the “effectiveness in downregulating Angptl4 compared with S-propranolol” value is listed as “far more effective”. For the same compound, the “effectiveness in downregulating Angptl4 compared with S-propranolol” value with Angptl4 [2] (listed as R(+)-propranolol) is on record as “More Effective”. This compound had a tumor volume in the assay with bEnd.3 hemangioma (3.5 mg/kg/day intraperitoneally five times a week, control 593.32, n=5 per group) of 37.60 mm3. Also, in the assay with bEnd.3 hemangioma (xenograft in mice, within two weeks of tumor development), the “effect on bEnd.3 hemangioma tumor growth in vivo” value is “active in vivo; also recorded: significant tumor volume reduction; also recorded: significantly reduced the tumor volume; also recorded: inhibited the growth; also recorded: significant inhibition of tumor growth”. Moreover, in the assay on bEnd.3 tumors (setting [5]), the APOA1 expression result was “induced; also recorded: upregulated”, the BHMT expression entry is recorded as “most highly regulated gene; also recorded: upregulated; also recorded: most upregulated”, the Egr-1 expression result is recorded as “elevated; also recorded: upregulated” and the “choline metabolism pathway (KEGG analysis)” value was “the pathway affected; also recorded: highly affected”. For the same compound, in the assay on bEnd.3 tumors (RNAseq, FIG. 4), the Eno4 expression entry is given as “downregulated”, the Faim2 expression entry was “downregulated”, the Hunk expression result is on record as “downregulated” and the “number of RNA transcripts significantly downregulated” value is on record as “Seven”. Further, in the assay on bEnd.3 tumors (RNAseq, FIG. 4), the “number of RNA transcripts upregulated” value is recorded as “seventeen”. Also, the “activity against Angptl4 compared with S-propranolol” value with Angptl4 [1] (endothelial cells) is “greater downregulation; also recorded: more active”. The “Angptl4 expression, Western blot” value in the assay on Angptl4 [3] (FIG. 1) is given as “reduced expression of Angptl4”. Also, in the assay on Angptl4 [3] (FIG. 1, listed as R-isomer), the “Angptl4 expression, Western blot” value is recorded as “suppressed Angptl4”. For the same compound, in the assay on bEnd.3 hemangioma cells (FIG. 5A), the “respiration compared with S-propranolol” value is “stronger respiration” and the maximal respiration entry is listed as “substantially increased”. Further, in the assay with bEnd.3 hemangioma cells, the basal respiration entry is recorded as “increased” and the spare respiratory capacity entry is recorded as “increased”. Moreover, the Angptl4 protein expression result in the assay with Angptl4 [4] is given as “markedly reduced”.
